Literature values, collected in publication PMC8999965 (Materials, 2022).

Parameters: method as in earlier work
Conditions: for EI(PCOP=0), environmental index excluding Photochemical Oxidation Potential: PCOP score excluded from summation; for EI, overall environmental index: sum of toxicity and environmental impact scores

Row | SMILES | EI(PCOP=0), environmental index excluding Photochemical Oxidation Potential | EI, overall environmental index
1 | CC#N [acetonitrile] | 1.88 | 1.88
2 | C1COCCN1 [morpholine] | 2.95 | 2.95
3 | CCN1CCOCC1 [4-ethylmorpholine] | 2.12 | 2.12
4 | O=CN1CCOCC1 [4-formylmorpholine] | 0.51 | 0.51
5 | CC(C)=O [acetone] | 0.66 | 1.27
6 | C[S+](C)[O-] [DMSO, dimethyl sulfoxide] | 0.26 | 11.68
